Literature values in patent US20090136550A1, “MODIFIED RELEASE FORMULATIONS OF DILTIAZEM” (Capricorn Pharma Inc., priority 2007, published 2009).
Structures can show the parent of a compound that is named as a salt.

- water solubility: highly water soluble
SMILES: COc1ccc([C@@H]2Sc3ccccc3N(CCN(C)C)C(=O)[C@@H]2OC(C)=O)cc1 [diltiazem hydrochloride]
